How the values were obtained:
[1] = system: constitutive active colorectal cancer cell (CRC) Wnt pathway; experiment: HCT116 TOPFlash cellular reporter assay (Super TopFlash vector, luciferase); assay type: cell-based; conditions: Homo sapiens, HCT-116; HCT116 Super TopFlash reporter cells, 36 hours incubation, dilution series 50 μM to 15 nM, luciferase expression
Procedure: In order to discover and characterize small molecules which inhibit the constitutive active colorectal cancer cell (CRC) Wnt pathway, a cellular reporter assay was employed. The corresponding assay cell was generated by transfection of the colorectal cancer cell line HCT116 (ATCC, #CCL-247) with the Super TopFlash vector (Morin, Science 275, 1997, 1787-1790; Molenaar et al., Cell 86 (3), 1996, 391-399). The HCT116 cell line is cultivated at 37° C. and 5% CO2 in DMEM/F-12 (Life Technologies, #11320-074), supplemented with 2 mM glutamine, 20 mM HEPES, 1.4 mM pyruvate, 0.15% Na-bicarbonate and 10% foetal bovine serum (GIBCO, #10270), this cancer cell line is pathophysiological relevant since it carries a deletion of position S45 in the β-catenin gene, leading to constitutive active Wnt signaling. Stable transfectants were generated by cotransfection with pcDNA3 and selection of stable transfected cells with 1 mg/ml G418.
(§1) In preparation of the assay, the two cell lines were plated 24 hours before at 10000 cells per well of a 384 micro titre plate (MTP) in 30 μL growth medium. Selective inhibitory activity for small molecules on the mutated Wnt pathway was determined after parallel incubation of both (TOP and FOP) HCT116 reporter cell lines with a compound dilution series from 50 μM to 15 nM in steps of 3.16-fold dilutions in CAFTY buffer (130 mM NaCl, 5 mM KCl, 20 mM HEPES, 1 mM MgCl2, 5 mM NaHCO3, pH 7.4) containing 2 mM Ca^2+ and 0.01% BSA. The compounds were thereby serially prediluted in 100% DMSO and thereafter in addition 50 fold into the CAFTY compound dilution buffer (described above). From this dilution 10 μL were added to the cells in 30 μL growth medium and incubated for 36 hours at 37° C. and 5% CO2.

[2] = system: HCT116 cells cotransfected with the FOP control vector (non-functional TCF elements); experiment: HCT116 FOPFlash control reporter assay (FOP control vector, luciferase); assay type: cell-based; conditions: Homo sapiens, HCT-116, 36 hours incubation, dilution series 50 μM to 15 nM, luciferase expression
Procedure: In a parallel approach, HCT116 cells were cotransfected with the FOP control vector and pcDNA3. The FOP vector is identical to the TOP construct, but it contains instead of functional TCF elements a randomized, non-functional sequence. For this transfection a stable transfected cell line was generated as well.
as §1

SMILES	IC50 [1] [µM]	IC50 [2] [µM]
Nc1ccc(CNC(=O)c2cc(C(=O)Nc3ccc(-c4ccccc4)cc3)ccc2OC(F)(F)F)cn1 [Example 29, N^3-[(6-aminopyridin-3-yl)methyl]-N^1-(biphenyl-4-yl)-4-(trifluoromethoxy)isophthalamide]	0.76	16
COc1ccc(NC(=O)c2ccc(-c3ccccc3)cc2)cc1C(=O)NCc1cccc(C)n1 [Example 34, N-(4-methoxy-3-{[(6-methylpyridin-2-yl)methyl]carbamoyl}phenyl) biphenyl-4-carboxamide]	3.65	≥ 50
COc1ccc(NC(=O)c2ccc(-c3ccccc3)cc2)cc1C(=O)NCCCOC(C)C [Example 6, N-{3-[(3-isopropoxypropyl)carbamoyl]-4-methoxyphenyl}biphenyl-4-carboxamide]	0.383	14.4
COc1ccc(C(=O)Nc2ccc(-c3ccccc3F)nc2)cc1C(=O)NCc1cccnc1 [Example 41, N^1-[6-(2-fluorophenyl)pyridin-3-yl]-4-methoxy-N^3-(pyridin-3-ylmethyl)isophthalamide]	1.6	≥ 50
COc1ccc(C(=O)Nc2ccc(-c3ccccc3F)nc2)cc1C(=O)Nc1cccnc1C [Example 25, N^1-[6-(2-fluorophenyl)pyridin-3-yl]-4-methoxy-N^3-(2-methylpyridin-3-yl)isophthalamide]	0.84	≥ 50
Cc1cc(NC(=O)c2cc(C(=O)Nc3ccc(-c4ccccc4)cc3)ccc2OC(F)(F)F)ccn1 [Example 10, N^1-(biphenyl-4-yl)-N^3-(2-methylpyridin-4-yl)-4-(trifluoromethoxy)isophthalamide]	0.6	10
Cc1cc(NC(=O)c2cc(C(=O)Nc3ccc(-c4ccccc4F)nc3)ccc2OC(F)(F)F)ccn1 [Example 59, N^1-[6-(2-fluorophenyl)pyridin-3-yl]-N^3-(2-methylpyridin-4-yl)-4-(trifluoromethoxy) isophthalamide]	1.7	5.5
O=C(Nc1ccc(-c2ccccc2)cc1)c1ccc(OC(F)(F)F)c(C(=O)Nc2cccnc2)c1 [Example 45, N^1-(biphenyl-4-yl)-N^3-(pyridin-3-yl)-4-(trifluoromethoxy) isophthalamide]	2.6	≥ 50
COc1ccc(C(=O)Nc2ccc(-c3ccccc3F)nc2)cc1C(=O)Nc1ccncc1F [Example 27, N^1-[6-(2-fluorophenyl)pyridin-3-yl]-N^3-(3-fluoropyridin-4-yl)-4-methoxyisophthalamide]	0.645	≥ 50
O=C(Nc1ccc(-c2ccccc2F)nc1)c1ccc(OC(F)(F)F)c(C(=O)NCc2ccccn2)c1 [Example 52, N^1-[6-(2-fluorophenyl)pyridin-3-yl]-N^3-(pyridin-2-ylmethyl)-4-(trifluoromethoxy) isophthalamide]	1.75	12
COc1ccc(C(=O)Nc2ccc(-c3ccccc3F)nc2)cc1C(=O)Nc1ccncc1 [Example 56, N^1-[6-(2-fluorophenyl)pyridin-3-yl]-4-methoxy-N^3-(pyridin-4-yl)isophthalamide]	1.8	8
CCOCCCNC(=O)c1cc(NC(=O)c2ccc(-c3ccccc3)cc2)ccc1OC [Example 5, N-{3-[(3-ethoxypropyl)carbamoyl]-4-methoxyphenyl}biphenyl-4-carboxamide]	0.608	31
Cc1ncccc1NC(=O)c1cc(C(=O)Nc2ccc(-c3ccccc3)cc2)ccc1OC(F)(F)F [Example 40, N^1-(biphenyl-4-yl)-N^3-(2-methylpyridin-3-yl)-4-(trifluoromethoxy) isophthalamide]	2.25	≥ 50
COc1ccc(C(=O)Nc2ccc(-c3ccccc3F)nc2)cc1C(=O)NCc1ccccn1 [Example 53, N^1-[6-(2-fluorophenyl)pyridin-3-yl]-4-methoxy-N^3-(pyridin-2-ylmethyl)isophthalamide]	10	≥ 50
COc1ccc(C(=O)Nc2ccc(-c3ccccc3)cc2)cc1C(=O)NCc1cccnc1 [Example 16, N^1-(biphenyl-4-yl)-4-methoxy-N^3-(pyridin-3-ylmethyl)isophthalamide]	0.64	≥ 50
O=C(Nc1ccc(-c2ccccc2)cc1)c1ccc(OC(F)(F)F)c(C(=O)Nc2ccncc2F)c1 [Example 22, N^1-(biphenyl-4-yl)-N^3-(3-fluoropyridin-4-yl)-4-(trifluoromethoxy)isophthalamide]	0.375	≥ 50
O=C(Nc1ccc(-c2ccccc2F)nc1)c1ccc(OC(F)(F)F)c(C(=O)Nc2ccncc2)c1 [Example 17, N^1-[6-(2-fluorophenyl)pyridin-3-yl]-N^3-(pyridin-4-yl)-4-(trifluoromethoxy)isophthalamide]	0.675	≥ 50
COc1cc(NC(=O)c2cc(C(=O)Nc3ccc(-c4ccccc4F)nc3)ccc2OC)ccn1 [Example 44, N^1-[6-(2-fluorophenyl)pyridin-3-yl]-4-methoxy-N^3-(2-methoxypyridin-4-yl)isophthalamide]	2.82	≥ 50
O=C(Nc1ccc(-c2cccnc2)cn1)c1ccc(OC(F)(F)F)c(C(=O)NCc2cnccn2)c1 [Example 50, N^1-(3,3′-bipyridin-6-yl)-N^3-(pyrazin-2-ylmethyl)-4-(trifluoromethoxy) isophthalamide]	1.7	≥ 50
COc1ccc(C(=O)Nc2ccc(-c3ccccc3F)nc2)cc1C(=O)Nc1ccncc1C [Example 46, N^1-[6-(2-fluorophenyl)pyridin-3-yl]-4-methoxy-N^3-(3-methylpyridin-4-yl)isophthalamide]	2.23	≥ 50
COc1ccc(C(=O)Nc2ccc(-c3ccccc3)cc2)cc1C(=O)NCc1ccc(NC(=O)OC(C)(C)C)nc1 [Example 54, tert-butyl [5-({[5-(biphenyl-4-ylcarbamoyl)-2-methoxybenzoyl]amino}methyl)pyridin-2-yl]carbamate]	3.2	16
COc1ccc(C(=O)Nc2ccc(-c3ccccc3)cc2)cc1C(=O)Nc1ccncc1 [Example 11, N^1-(biphenyl-4-yl)-4-methoxy-N^3-(pyridin-4-yl)isophthalamide]	0.415	11.5
COc1cnccc1NC(=O)c1cc(C(=O)Nc2ccc(-c3ccccc3F)nc2)ccc1OC [Example 28, N^1-[6-(2-fluorophenyl)pyridin-3-yl]-4-methoxy-N^3-(3-methoxypyridin-4-yl)isophthalamide]	0.225	≥ 50
COc1ccc(C(=O)Nc2ccc(-c3ccccc3F)nc2)cc1C(=O)Nc1cncc(C)c1 [Example 63, N^1-[6-(2-fluorophenyl)pyridin-3-yl]-4-methoxy-N^3-(5-methylpyridin-3-yl)isophthalamide]	26.7	≥ 50
O=C(Nc1ccc(-c2ccccc2F)nc1)c1ccc(OC(F)(F)F)c(C(=O)Nc2ccncc2F)c1 [Example 42, N^1-[6-(2-fluorophenyl)pyridin-3-yl]-N^3-(3-fluoropyridin-4-yl)-4-(trifluoromethoxy) isophthalamide]	2.13	≥ 50
COCCCN(C)C(=O)c1cc(NC(=O)c2ccc(-c3ccccc3)cc2)ccc1OC [Example 4, N-{4-methoxy-3-[(3-methoxypropyl)(methyl)carbamoyl]phenyl}biphenyl-4-carboxamide]	0.815	12.2
O=C(Nc1ccc(-c2ccccc2)cc1)c1ccc(OC(F)(F)F)c(C(=O)NCc2ccccn2)c1 [Example 7, N^1-(biphenyl-4-yl)-N^3-(pyridin-2-ylmethyl)-4-(trifluoromethoxy)isophthalamide]	0.359	≥ 50
COc1ccc(C(=O)Nc2ccc(-c3ccccc3)cc2)cc1C(=O)Nc1ccncc1C [Example 13, N^1-(biphenyl-4-yl)-4-methoxy-N^3-(3-methylpyridin-4-yl)isophthalamide]	0.405	≥ 50
COc1ccc(C(=O)Nc2ccc(-c3ccccc3)cc2)cc1C(=O)Nc1ccncc1Cl [Example 15, N^1-(biphenyl-4-yl)-N^3-(3-chloropyridin-4-yl)-4-methoxyisophthalamide]	0.9	≥ 50
COc1ccc(C(=O)Nc2ccc(-c3ccccc3F)nc2)cc1C(=O)Nc1cccnc1 [Example 60, N^1-[6-(2-fluorophenyl)pyridin-3-yl]-4-methoxy-N^3-(pyridin-3-yl)isophthalamide]	6.05	11

Source: patent US20180028507A1, “3-CARBAMOYLPHENYL-4-CARBOXAMIDE AND ISOPHTALAMIDE DERIVATIVES AS INHIBITORS OF THE WNT SIGNALLING PATHWAY” (Bayer Pharma Aktiengesellschaft, priority 2015, published 2018)
